Laboratory results taken from the CheMixHub ionic liquid set.

Assay: xn = mol fraction of the nth substance listed

CCCCCCCCCCCCCCCC[n+]1ccccc1.O=C([O-])C(O)c1ccccc1 + NCC(=O)NCC(=O)O + O
electrical conductivity [S/m], 101 kPa
Settings | 293.15 K | 298.15 K | 303.15 K | 308.15 K | 313.15 K
x1 = 1.08e-06, x2 = 0 | 0.00061 | 0.00068 | 0.00076 | 0.00083 | 0.0009
x1 = 1.09e-06, x2 = 0.001799 | 0.00287 | 0.00346 | 0.00413 | 0.0049 | 0.0058
x1 = 1.27e-06, x2 = 0.0009002 | 0.00184 | 0.0022 | 0.0026 | 0.0031 | 0.0036
x1 = 1.98e-06, x2 = 0 | 0.001 | 0.0012 | 0.0013 | 0.0014 | 0.0016
x1 = 2.19e-06, x2 = 0.001799 | 0.00326 | 0.00391 | 0.0046 | 0.0054 | 0.0064
x1 = 2.36e-06, x2 = 0.0009002 | 0.00226 | 0.00268 | 0.0031 | 0.0036 | 0.0042
x1 = 2.88e-06, x2 = 0 | 0.00147 | 0.0016 | 0.0018 | 0.002 | 0.0022
x1 = 3.26e-06, x2 = 0.0009002 | 0.00264 | 0.0031 | 0.0036 | 0.0042 | 0.0048
x1 = 3.46e-06, x2 = 0.001799 | 0.00367 | 0.00438 | 0.0051 | 0.006 | 0.007
x1 = 3.96e-06, x2 = 0 | 0.0019 | 0.0022 | 0.0024 | 0.0026 | 0.0029
x1 = 4.17e-06, x2 = 0.0009002 | 0.00301 | 0.0035 | 0.004 | 0.0046 | 0.0053
x1 = 4.56e-06, x2 = 0.001799 | 0.00407 | 0.00482 | 0.0056 | 0.0066 | 0.0076
x1 = 4.69e-06, x2 = 0 | 0.0023 | 0.0026 | 0.0029 | 0.0031 | 0.0035
x1 = 5.44e-06, x2 = 0.0009002 | 0.00346 | 0.004 | 0.0046 | 0.0053 | 0.006
x1 = 5.47e-06, x2 = 0.001799 | 0.00441 | 0.00521 | 0.0061 | 0.007 | 0.0082
x1 = 5.95e-06, x2 = 0 | 0.00281 | 0.0032 | 0.0035 | 0.0038 | 0.0042
x1 = 6.89e-06, x2 = 0.0009002 | 0.00401 | 0.00464 | 0.0053 | 0.006 | 0.0069
x1 = 6.93e-06, x2 = 0.001799 | 0.00487 | 0.00571 | 0.0066 | 0.0077 | 0.0089
x1 = 7.21e-06, x2 = 0 | 0.00341 | 0.0038 | 0.0042 | 0.0046 | 0.0051
x1 = 8.34e-06, x2 = 0.0009002 | 0.00451 | 0.0052 | 0.0059 | 0.0068 | 0.0077
x1 = 8.38e-06, x2 = 0.001799 | 0.00536 | 0.00626 | 0.0072 | 0.0084 | 0.0097
x1 = 8.83e-06, x2 = 0 | 0.00406 | 0.0046 | 0.005 | 0.0055 | 0.006
x1 = 9.97e-06, x2 = 0.0009002 | 0.00504 | 0.00579 | 0.0066 | 0.0075 | 0.0085
x1 = 1.002e-05, x2 = 0.001799 | 0.00583 | 0.0068 | 0.0078 | 0.009 | 0.0104
x1 = 1.045e-05, x2 = 0 | 0.00469 | 0.0053 | 0.0058 | 0.0065 | 0.0071
x1 = 1.142e-05, x2 = 0.0009002 | 0.00547 | 0.00629 | 0.0071 | 0.0081 | 0.0092
x1 = 1.166e-05, x2 = 0.001799 | 0.0062 | 0.00723 | 0.0083 | 0.0096 | 0.011
x1 = 1.207e-05, x2 = 0 | 0.00516 | 0.0058 | 0.0064 | 0.0071 | 0.0079
x1 = 1.287e-05, x2 = 0.0009002 | 0.00582 | 0.00669 | 0.0076 | 0.0086 | 0.0098
x1 = 1.312e-05, x2 = 0.001799 | 0.0066 | 0.00763 | 0.0088 | 0.0101 | 0.0117
x1 = 1.351e-05, x2 = 0 | 0.00562 | 0.00631 | 0.007 | 0.0077 | 0.0085
x1 = 1.414e-05, x2 = 0.0009002 | 0.00617 | 0.00708 | 0.008 | 0.0091 | 0.0103
x1 = 1.476e-05, x2 = 0.001799 | 0.00697 | 0.0081 | 0.0093 | 0.0107 | 0.0122
x1 = 1.478e-05, x2 = 0 | 0.00603 | 0.0068 | 0.0075 | 0.0083 | 0.0092
x1 = 1.54e-05, x2 = 0.0009002 | 0.00651 | 0.0075 | 0.0084 | 0.0096 | 0.0108
x1 = 1.622e-05, x2 = 0 | 0.00644 | 0.0072 | 0.008 | 0.0089 | 0.0098
x1 = 1.622e-05, x2 = 0.001799 | 0.00735 | 0.0084 | 0.0097 | 0.0112 | 0.0128
x1 = 1.667e-05, x2 = 0.0009002 | 0.00687 | 0.0079 | 0.0089 | 0.0101 | 0.0114
x1 = 1.75e-05, x2 = 0.001799 | 0.00771 | 0.0088 | 0.0102 | 0.0117 | 0.0133
x1 = 1.766e-05, x2 = 0 | 0.00687 | 0.0077 | 0.0085 | 0.0094 | 0.0104

CC(C)[C@H](N)C(=O)O + CCCCCCCCCCCCCCCC[n+]1ccccc1.O=C([O-])C(O)c1ccccc1 + O
Settings | electrical conductivity [S/m]
313.15 K, 101 kPa, x2 = 0, x1 = 0.001799 | 0.0016

O=[N+]([O-])[O-].[Li+] + CC[NH3+].O=[N+]([O-])[O-]
Settings | electrical conductivity [S/m] | viscosity [mPa·s]
223 K, 100 kPa, x1 = 0.09755 | 0.01 | –
223 K, 100 kPa, x1 = 0.1778 | 0.005 | –
233 K, 100 kPa, x1 = 0.09755 | 0.039 | –
233 K, 100 kPa, x1 = 0.1778 | 0.022 | –
243 K, 100 kPa, x1 = 0.09755 | 0.104 | –
243 K, 100 kPa, x1 = 0.1778 | 0.065 | –
253 K, 100 kPa, x1 = 0.09755 | 0.224 | –
253 K, 100 kPa, x1 = 0.1778 | 0.151 | –
263 K, 100 kPa, x1 = 0.09755 | 0.414 | –
263 K, 100 kPa, x1 = 0.1778 | 0.295 | –
273 K, 100 kPa, x1 = 0.09755 | 0.682 | –
273 K, 100 kPa, x1 = 0.1778 | 0.512 | –
283 K, 100 kPa, x1 = 0.09755 | 1.03 | –
283 K, 100 kPa, x1 = 0.1778 | 0.81 | –
288.15 K, 100 kPa, x1 = 0.09755 | – | 56.2
288.15 K, 100 kPa, x1 = 0.1778 | – | 68.6
293 K, 100 kPa, x1 = 0.09755 | 1.47 | –
293 K, 100 kPa, x1 = 0.1778 | 1.19 | –
293.15 K, 100 kPa, x1 = 0.09755 | – | 46.97
293.15 K, 100 kPa, x1 = 0.1778 | – | 56.13
298.15 K, 100 kPa, x1 = 0.09755 | – | 39.49
298.15 K, 100 kPa, x1 = 0.1778 | – | 46.25
298.15 K, 101 kPa, x2 = 0.8222 | – | 68.1
303 K, 100 kPa, x1 = 0.09755 | 1.99 | –
303 K, 100 kPa, x1 = 0.1778 | 1.67 | –
303.15 K, 100 kPa, x1 = 0.09755 | – | 33.4
303.15 K, 100 kPa, x1 = 0.1778 | – | 38.36
308.15 K, 100 kPa, x1 = 0.09755 | – | 28.4
308.15 K, 100 kPa, x1 = 0.1778 | – | 32.01
313 K, 100 kPa, x1 = 0.09755 | 2.58 | –
313 K, 100 kPa, x1 = 0.1778 | 2.22 | –
313.15 K, 100 kPa, x1 = 0.09755 | – | 24.27
313.15 K, 100 kPa, x1 = 0.1778 | – | 26.86
323 K, 100 kPa, x1 = 0.09755 | 3.23 | –
323 K, 100 kPa, x1 = 0.1778 | 2.86 | –
333 K, 100 kPa, x1 = 0.09755 | 3.95 | –
333 K, 100 kPa, x1 = 0.1778 | 3.58 | –
343 K, 100 kPa, x1 = 0.09755 | 4.73 | –
343 K, 100 kPa, x1 = 0.1778 | 4.36 | –
353 K, 100 kPa, x1 = 0.09755 | 5.54 | –
353 K, 100 kPa, x1 = 0.1778 | 5.21 | –
363 K, 100 kPa, x1 = 0.09755 | 6.4 | –
363 K, 100 kPa, x1 = 0.1778 | 6.11 | –
373 K, 100 kPa, x1 = 0.09755 | 7.29 | –
373 K, 100 kPa, x1 = 0.1778 | 7.06 | –

CC[n+]1ccn(C)c1.O=C([O-])C(F)(F)F + OCCO
100 kPa
Settings | electrical conductivity, 298.15 K [S/m] | electrical conductivity, 313.15 K [S/m] | viscosity, 293.15 K [mPa·s] | viscosity, 298.15 K [mPa·s] | viscosity, 303.15 K [mPa·s] | viscosity, 313.15 K [mPa·s]
x1 = 0.001 | 0.0126 | 0.0215 | 20.8 | 16.9 | 13.8 | 9.56
x1 = 0.003 | 0.0278 | 0.0473 | 20.8 | 16.8 | 13.8 | 9.54
x1 = 0.009 | 0.065 | 0.111 | 20.6 | 16.7 | 13.7 | 9.53
x1 = 0.015 | 0.106 | 0.18 | 20.5 | 16.6 | 13.7 | 9.49
x2 = 0.489 | 1.36 | 2.23 | 20.6 | 17.5 | 14.9 | 11.1
x2 = 0.602 | 1.48 | 2.25 | 18.4 | 15.5 | 13.2 | 9.84
x2 = 0.71 | 1.33 | 2.06 | 17.2 | 14.5 | 12.3 | 9.09
x2 = 0.783 | 1.11 | 1.72 | 17.2 | 14.3 | 12.1 | 8.83
x2 = 0.843 | 0.89 | 1.41 | 17.6 | 14.6 | 12.2 | 8.81
x2 = 0.894 | 0.63 | 1.03 | 18.4 | 15.1 | 12.5 | 8.95
x2 = 0.934 | 0.415 | 0.69 | 19.3 | 15.8 | 13 | 9.2
x2 = 0.97 | 0.2 | 0.339 | 20.2 | 16.4 | 13.5 | 9.4

F[B-](F)(F)F.[Li+] + CCCC[n+]1ccn(C)c1.[I-]
electrical conductivity [S/m], 101 kPa
Settings | 298.15 K | 308.15 K | 323.15 K
x1 = 0.1 | – | 0.0454 | –
x1 = 0.2 | 0.0449 | – | 0.079
